These molecules were tested against T1, human DGAT2 (Homo sapiens, UniProt Q96PD7) (assay: DGAT2 Enzymatic Activity Assay). Conditions: membrane prep of Sf-9 insect cells expressing hDGAT2; 13C18-triolein product by LC/MS/MS; 25 μM diolein, 5 μM 13C oleoyl-CoA.
T1 construct: made in house; host or cells: Sf-9 insect cells (baculovirus), membrane fraction
T1 sequence (Q96PD7 1-388): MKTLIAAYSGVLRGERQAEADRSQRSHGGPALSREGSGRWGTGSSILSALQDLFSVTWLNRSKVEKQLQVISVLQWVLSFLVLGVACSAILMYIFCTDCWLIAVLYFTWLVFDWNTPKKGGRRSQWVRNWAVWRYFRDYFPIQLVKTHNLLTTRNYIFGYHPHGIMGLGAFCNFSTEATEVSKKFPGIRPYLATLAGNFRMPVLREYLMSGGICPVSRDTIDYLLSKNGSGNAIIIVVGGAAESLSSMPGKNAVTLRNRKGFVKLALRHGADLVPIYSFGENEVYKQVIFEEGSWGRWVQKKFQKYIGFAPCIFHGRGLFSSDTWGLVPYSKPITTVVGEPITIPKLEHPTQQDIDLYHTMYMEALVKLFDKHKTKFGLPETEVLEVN
Assay type: biochemical
Procedure: Sf-9 insect cells were maintained in Grace's insect cell culture medium with 10% heated-inactivated fetal bovine serum, 1% Pluronic F-68 and 0.14 μg/ml Kanamycine sulfate at 27° C. in a shaker incubator. After infection with untagged baculovirus expressing human DGAT2 (hDGAT2) at multiplicity of infection (MOI) 3 for 48 hours, cells were harvested. Cell pellets were suspended in buffer containing 10 mM Tris-HCl pH 7.5, 1 mM EDTA, 250 mM sucrose and Complete Protease Inhibitor Cocktail (Sigma Aldrich), and sonicated on ice. Cell debris were removed by centrifugation at 2000×g for 15 minutes. Membrane fractions were isolated by ultracentrifugation (100,000×g), resuspended in the same buffer, and frozen (−80° C.) for later use. The protein concentration was determined with the Pierce™ BCA Protein Assay Kit (Thermo Fisher Scientific).
LC/MS/MS analyses were performed using Thermal Fisher's LX4-TSQ Vantage system. This system consists of an Agilent binary high-performance liquid chromatography (HPLC) pump and a TSQ Vantage triple quadrupole MS/MS instrument. For each sample, 2 μL samples from the top organic layer of in-plate liquid-liquid extraction were injected onto a Thermo Betabasic C4 column (2.1 mm×20 mm, 5 μm particle size). The samples were then eluted using the following conditions; mobile phase: Isopropanol:acetonitrile/10 mM ammonium formate=50/35/15 (v/v/v), flow rate: 0.8 mL/min, temperature: 25° C. Data was acquired in positive mode using a heated electrospray ionization (HESI) interface. […] The peak area was integrated by Xcalibur Quan software. The ratio between the ^13C18triolein generated in the reaction and spiked in internal standard ^13C21-triolein was used to generate percentage inhibition and IC50 values. Compound percentage inhibition was calculated by the following formula: Inhibition %=1−[(compound response−low control)/(high control−low control)]×100%.
DGAT2 activity was determined by measuring the amount of enzymatic product ^13C18-triolein (^13C-1,2,3-Tri(cis-9-octadecenoyl)glycerol) using the membrane prep mentioned above. The assay was carried out in ABgene 384-well assay plates in a final volume of 25 μL at rt.

**Q.** With CC1(NC(=O)c2nn3ccc(Oc4ncc(F)cc4OCC(F)(F)F)cc3c2F)CS(=O)(=O)C1 [Example 28, 3-Fluoro-5-((5-fluoro-3-(2,2,2-trifluoroethoxy)pyridin-2-yl)oxy)-N-(3-methyl-1,1-dioxidothietan-3-yl)pyrazolo[1,5-a]pyridine-2-carboxamide] as the molecule, how does the IC50 read?
**A.** The IC50 was 129 nM.

**Q.** With C[C@@]1(NC(=O)c2nn3ccc(Oc4ncc(F)cc4OCC(F)(F)F)cc3c2F)CCS(=O)(=O)C1 [Example 29, (R)-3-Fluoro-5-((5-fluoro-3-(2,2,2-trifluoroethoxy)pyridin-2-yl)oxy)-N-(3-methyl-1,1-dioxidotetrahydrothiophen-3-yl)pyrazolo[1,5-a]pyridine-2-carboxamide] as the molecule, how does the IC50 read?
**A.** The IC50 was 277 nM.

**Q.** With CC1(NC(=O)c2nn3ccc(Oc4nccnc4OCC(F)F)cc3c2Cl)CS(=O)(=O)C1 [Example 30, 3-Chloro-5-((3-(2,2-difluoroethoxy)pyrazin-2-yl)oxy)-N-(3-methyl-1,1-dioxidothietan-3-yl)pyrazolo[1,5-a]pyridine-2-carboxamide] as the molecule, how does the IC50 read?
**A.** Its IC50 is 78 nM.

**Q.** How did the IC50 turn out when CC1(NC(=O)c2nn3ccc(Oc4nccnc4OCC(F)F)cc3c2F)CS(=O)(=O)C1 [Example 31, 5-((3-(2,2-Difluoroethoxy)pyrazin-2-yl)oxy)-3-fluoro-N-(3-methyl-1,1-dioxidothietan-3-yl)pyrazolo[1,5-a]pyridine-2-carboxamide] was run?
**A.** The IC50 was 194 nM.

**Q.** Which IC50 does the source give for CC1(NC(=O)c2nn3ccc(Oc4nccnc4OCC(F)F)cc3c2F)CCS(=O)(=O)CC1 [Example 32, 5-((3-(2,2-Difluoroethoxy)pyrazin-2-yl)oxy)-3-fluoro-N-(4-methyl-1,1-dioxidotetrahydro-2H-thiopyran-4-yl)pyrazolo[1,5-a]pyridine-2-carboxamide] here?
**A.** Its IC50 is 10 nM.

**Q.** CC1(NC(=O)c2nn3ccc(Oc4ncc(F)cc4OCC(F)(F)F)c(Cl)c3c2Cl)CCS(=O)(=O)CC1 [Example 33, 3,4-Dichloro-5-((5-fluoro-3-(2,2,2-trifluoroethoxy)pyridin-2-yl)oxy)-N-(4-methyl-1,1-dioxidotetrahydro-2H-thiopyran-4-yl)pyrazolo[1,5-a]pyridine-2-carboxamide] was tested. Which IC50 did it give?
**A.** Its IC50 is 8.8 nM.

**Q.** Which IC50 does the source give for CC1(NC(=O)c2nn3ccc(Oc4ncc(F)cc4OCC(F)(F)F)cc3c2Cl)CCS(=O)(=O)CC1 [Example 34, 3-Chloro-5-((5-fluoro-3-(2,2,2-trifluoroethoxy)pyridin-2-yl)oxy)-N-(4-methyl-1,1-dioxidotetrahydro-2H-thiopyran-4-yl)pyrazolo[1,5-a]pyridine-2-carboxamide] here?
**A.** Its IC50 is 7.3 nM.

**Q.** With CC1(NC(=O)c2nn3ccc(Oc4nccnc4OCC(F)(F)F)cc3c2Cl)CCS(=O)(=O)CC1 [Example 35, 3-Chloro-N-(4-methyl-1,1-dioxidotetrahydro-2H-thiopyran-4-yl)-5-((3-(2,2,2-trifluoroethoxy)pyrazin-2-yl)oxy)pyrazolo[1,5-a]pyridine-2-carboxamide] as the molecule, how does the IC50 read?
**A.** The IC50 was 18 nM.

**Q.** With CC1(NC(=O)c2nn3ccc(Oc4ncc(F)cc4OCC(F)(F)F)cc3c2F)CCS(=O)(=O)CC1 [Example 36, 3-Fluoro-5-((5-fluoro-3-(2,2,2-trifluoroethoxy)pyridin-2-yl)oxy)-N-(4-methyl-1,1-dioxidotetrahydro-2H-thiopyran-4-yl)pyrazolo[1,5-a]pyridine-2-carboxamide] as the molecule, how does the IC50 read?
**A.** Its IC50 is 7.3 nM.

**Q.** CC1(NC(=O)c2nn3ccc(Oc4ncc(Cl)cc4OCC(F)(F)F)cc3c2F)CS(=O)(=O)C1 [Example 37, 5-((5-Chloro-3-(2,2,2-trifluoroethoxy)pyridin-2-yl)oxy)-3-fluoro-N-(3-methyl-1,1-dioxidothietan-3-yl)pyrazolo[1,5-a]pyridine-2-carboxamide] was tested. Which IC50 did it give?
**A.** The IC50 was 7.7 nM.

**Q.** How did the IC50 turn out when CC1(NC(=O)c2nn3ccc(Oc4ncc(C#N)cc4OCC(F)(F)F)cc3c2Cl)CCS(=O)(=O)CC1 [Example 41, 3-Chloro-5-((5-cyano-3-(2,2,2-trifluoroethoxy)pyridin-2-yl)oxy)-N-(4-methyl-1,1-dioxidotetrahydro-2H-thiopyran-4-yl)pyrazolo[1,5-a]pyridine-2-carboxamide] was run?
**A.** Its IC50 is 5 nM.

**Q.** How did the IC50 turn out when CC1(NC(=O)c2cc3cc(Oc4ncc(C#N)cc4OCC(F)(F)F)ccn3n2)CCS(=O)(=O)CC1 [Example 42, 5-((5-Cyano-3-(2,2,2-trifluoroethoxy)pyridin-2-yl)oxy)-N-(4-methyl-1,1-dioxidotetrahydro-2H-thiopyran-4-yl)pyrazolo[1,5-a]pyridine-2-carboxamide] was run?
**A.** Its IC50 is 20 nM.

**Q.** For CCc1c(C(=O)NC2(C)CCS(=O)(=O)CC2)nn2ccc(Oc3ncccc3OCC(F)(F)F)cc12 [Example 46, 3-Ethyl-N-(4-methyl-1,1-dioxidotetrahydro-2H-thiopyran-4-yl)-5-((3-(2,2,2-trifluoroethoxy)pyridin-2-yl)oxy)pyrazolo[1,5-a]pyridine-2-carboxamide], which IC50 is on record?
**A.** The IC50 was 17 nM.

**Q.** How did the IC50 turn out when CCc1c(C(=O)NC2(C)CS(=O)(=O)C2)nn2ccc(Oc3ncccc3OCC(F)(F)F)cc12 [Example 47, 3-Ethyl-N-(3-methyl-1,1-dioxidothietan-3-yl)-5-((3-(2,2,2-trifluoroethoxy)pyridin-2-yl)oxy)pyrazolo[1,5-a]pyridine-2-carboxamide] was run?
**A.** Its IC50 is 257 nM.

**Q.** For CC(C)c1c(C(=O)NC2(C)CCS(=O)(=O)CC2)nn2ccc(Oc3ncccc3OCC(F)(F)F)cc12 [Example 48, 3-Isopropyl-N-(4-methyl-1,1-dioxidotetrahydro-2H-thiopyran-4-yl)-5-((3-(2,2,2-trifluoroethoxy)pyridin-2-yl)oxy)pyrazolo[1,5-a]pyridine-2-carboxamide], which IC50 is on record?
**A.** The IC50 was 46 nM.

**Q.** CC1(NC(=O)c2nn3ccc(Oc4ncccc4OCC(F)(F)F)cc3c2C(F)F)CCS(=O)(=O)CC1 [Example 49, 3-(Difluoromethyl)-N-(4-methyl-1,1-dioxidotetrahydro-2H-thiopyran-4-yl)-5-((3-(2,2,2-trifluoroethoxy)pyridin-2-yl)oxy)pyrazolo[1,5-a]pyridine-2-carboxamide] was tested. Which IC50 did it give?
**A.** The IC50 was 973 nM.

**Q.** With CC1(NC(=O)c2nn3ccc(Oc4ncccc4OCC(F)(F)F)cc3c2CO)CCS(=O)(=O)CC1 [Example 50, 3-(Hydroxymethyl)-N-(4-methyl-1,1-dioxidotetrahydro-2H-thiopyran-4-yl)-5-((3-(2,2,2-trifluoroethoxy)pyridin-2-yl)oxy)pyrazolo[1,5-a]pyridine-2-carboxamide] as the molecule, how does the IC50 read?
**A.** Its IC50 is 10 nM.

**Q.** CC1(NC(=O)c2nn3ccc(Oc4ncccc4OCC(F)(F)F)cc3c2C(F)(F)F)CCS(=O)(=O)CC1 [Example 51, N-(4-Methyl-1,1-dioxidotetrahydro-2H-thiopyran-4-yl)-5-((3-(2,2,2-trifluoroethoxy)pyridin-2-yl)oxy)-3-(trifluoromethyl)pyrazolo[1,5-a]pyridine-2-carboxamide] was tested. Which IC50 did it give?
**A.** Its IC50 is 828 nM.

**Q.** How did the IC50 turn out when CC1(NC(=O)c2nn3ccc(Oc4ncc(F)cc4OCC(F)(F)F)cc3c2C2CC2)CCS(=O)(=O)CC1 [Example 54, 3-cyclopropyl-5-((5-fluoro-3-(2,2,2-trifluoroethoxy)pyridin-2-yl)oxy)-N-(4-methyl-1,1-dioxidotetrahydro-2H-thiopyran-4-yl)pyrazolo[1,5-a]pyridine-2-carboxamide] was run?
**A.** The IC50 was 48 nM.

**Q.** CC1(NC(=O)c2nn3ccc(Oc4ncc(F)cc4OCC(F)(F)F)cc3c2N)CCS(=O)(=O)CC1 [Example 55, 3-Amino-5-((5-fluoro-3-(2,2,2-trifluoroethoxy)pyridin-2-yl)oxy)-N-(4-methyl-1,1-dioxidotetrahydro-2H-thiopyran-4-yl)pyrazolo[1,5-a]pyridine-2-carboxamide] was tested. Which IC50 did it give?
**A.** Its IC50 is 16 nM.

**Q.** CC1(NC(=O)c2cc3c(F)c(Oc4ncc(F)cc4OCC(F)(F)F)ccn3n2)CCS(=O)(=O)CC1 [Example 56, 4-Fluoro-5-((5-fluoro-3-(2,2,2-trifluoroethoxy)pyridin-2-yl)oxy)-N-(4-methyl-1,1-dioxidotetrahydro-2H-thiopyran-4-yl)pyrazolo[1,5-a]pyridine-2-carboxamide] was tested. Which IC50 did it give?
**A.** The IC50 was 20 nM.

**Q.** How did the IC50 turn out when Cc1c(Oc2ncc(F)cc2OCC(F)(F)F)ccn2nc(C(=O)NC3(C)CCS(=O)(=O)CC3)cc12 [Example 58, 5-((5-Fluoro-3-(2,2,2-trifluoroethoxy)pyridin-2-yl)oxy)-4-methyl-N-(4-methyl-1,1-dioxidotetrahydro-2H-thiopyran-4-yl)pyrazolo[1,5-a]pyridine-2-carboxamide] was run?
**A.** Its IC50 is 6.6 nM.

From patent US20260193249A1, “PREPARATION OF PYRAZOLOPYRIDINE AND TRIAZOLOPYRIDINE DERIVATIVES AS NOVEL DIACYLGLYCERIDE O-ACYLTRANSFERASE 2 INHIBITORS” (Merck Sharp & Dohme LLC, priority 2022, published 2026)
